From US20150306110A1, “COMPOSITIONS AND METHODS FOR TREATMENT OF INFLAMMATION AND HYPERKERATOTIC LESIONS” (Novelix Pharmaceuticals, Inc., priority 2008, published 2015)
In brackets after ≈: the same amount, converted by molar mass.

Assay: Solubility in ethanol, DMSO and ethanol-Tween 80
Format: physicochemical
Conditions: organic solvent or mixture
Protocol: After solution in ethanol or DMSO, or chemically similar solvents, NVX-207 or a related compound may be formulated with co-solvents such as Cremophor EL® and/or Tween® 80, in a similar manner described for taxanes. For example, the formulation approach for paclitaxel (TAXOL®; Bristol-Myers Squibb) was to use 50% Cremophor EL® and 50% ethanol. The pharmaceutical formulation of paclitaxel contains 30 mg paclitaxel dissolved in 5 ml of this (1:1, v/v) mixture. These and equivalent formulations allow for the application of NVX-207 in sufficiently high concentrations not only for topical, but also for intralesional and systemic (intravenous infusion) use. Solubility of NVX-207 in ethanol was determined to be at least 300 mg/ml and reached 250 mg/ml in DMSO. […] The solubility of NVX-207 in ethanol-Tween® 80 was evaluated. Two-hundred mg of NVX-207 was dissolved in 1 ml ethanol. […] Then an equal volume of Tween® 80 was added, to achieve a stock solution of 100 mg/ml of NVX-207. The stock solution was clear and yellow. Each stock solution was diluted first 1:1 (50 mg/ml NVX-207), then 1:5 (20 mg/ml NVX-207) and finally 1:10 (10 mg/ml NVX-207) with water. […] NVX-207 therefore has, apart from its higher activity, significant advantages over betulinic acid, that include higher activity, better solubility in pharmaceutically suitable solvents, and better handling.

## C=C(C)[C@@H]1CC[C@]2(C(=O)O)CC[C@]3(C)[C@H](CC[C@@H]4[C@@]5(C)CC[C@H](O)C(C)(C)[C@@H]5CC[C@]43C)[C@@H]12 [betulinic acid, reference compound]
Solubility in DMSO
  solubility: 10 mg/mL (≈ 21.9 mM)
Solubility in ethanol
  solubility: < 1 mg/mL
